“Also recorded” adds a separate entry of the source.
Columns and labels:
[1] = Water evaporation from tocopherol/water emulsions; format: physicochemical; details: uncapped vials, ambient conditions, nine days
Procedure: FIG. 3 is a bar graph depicting the percent water evaporation from a tocopherol/water emulsions at nine days, shown as the percent water lost.
Mixtures of α-tocopheryl acetate (EA), d-α-tocopheryl polyethylene glycol 1000 succinate (TPGS) and water were prepared at the ratios shown in Table 1, weighed, and placed in 20 ml-sized glass vials. Vials #1 through #6 were each capped and sonicated for two minutes to yield stable emulsions. The vials #1 through #8 were then uncapped and left at ambient conditions for nine days. All the emulsions in vials #1 through #6 remained stable. All vials were weighed subsequently to measure weight (water) loss. […] Results are also depicted in FIG. 3.

dry eye syndrome = experiment: Topical application of α-tocopheryl acetate eyedrop in human volunteers with dry eye symptoms; details: for duration of relief from dry eye symptoms: one drop about 50 μl
[2] = set-up: species or system New Zealand White (NZW) rabbits; details: both, New Zealand White, rabbit, in vivo
Procedure: FIG. 2 is a graph showing the levels of α-tocopheryl acetate in the tears of rabbits over the course of seven days after the rabbits were administered one drop of α-tocopheryl acetate (3.6 mg, 3.9 mg, 5.4 mg, or 6.0 mg) on day one.
Four adult New Zealand White (NZW) rabbits (two females, two males) each weighing 4.5 kilo to 5.0 kilo were used in this example. One drop of α-tocopheryl acetate, each weighing 3.6 mg, 3.9 mg, 5.4 mg and 6.0 mg, was instilled onto one eye of each animal. Tear samples were collected daily by filter paper, weighed, eluted in 300 μl MeOH and analyzed for tocopheryl acetate (EA) by LC/MS/MS. Detected tear levels of EA over a seven-day period ranged from 15 μg/ml to 36 μg/ml with a mean of 26 μg/ml (26,000 ng/ml). Detectable levels of EA in the cul-de-sac of the rabbit eye may last beyond seven days.

[3] = Water or saline stably absorbed in α-tocopheryl acetate (evaporative weight loss); format: physicochemical; details: sealed vials, 30° C., after 12 hrs
Procedure: In an alternative study, the concentrations of water or saline that would remain stably absorbed in α-tocopheryl acetate (EA) were examined. Equal volumes of water or 0.9% saline were placed with EA in sealed vials at 30° C. Samples of the resultant EA plus absorbed aqueous were removed at several time points and the water contents were assayed by evaporative weight loss to constant weight over time at 30° C. open to the air. After 12 hrs exposure of EA to water or the saline solution in sealed vials at 30° C. the maximum amounts of aqueous solutions absorbed in EA were reached. The resultant values were: 0.3% water absorbed and 0.6% saline solution absorbed.

CDE symptoms = experiment: Alleviation of CDE symptoms in contact lens-wearing individual, subjective comfort; format: in vivo, human
Excerpt: FIG. 1 is a bar graph depicting the subjective comfort of an individual applying a drop of α-tocopheryl acetate into the eye(s) before bedtime preceding the days indicated. Subjective comfort is depicted on a scale of 1 to 10; with 1 being very irritated, and right eye feeling swollen; and 10 being very comfortable and tolerable compared to no drops.
A volunteer used one drop of α-tocopheryl acetate in one or more eyes at night, and reported the irritation or comfort on a subjective scale of 1-to-10, (maximum irritation “1”, maximum comfort “10”) as shown in FIG. 1. At days 1 to 5, the individual placed one drop in the right eye only.

| Compound | g wt loss [1] | irritation or blurred vision reported (dry eye syndrome; one drop about 50 μl in eye, two human volunteers) | duration of relief from dry eye symptoms (dry eye syndrome; no repeat applications, both volunteers) | duration of relief from dry eye symptoms (dry eye syndrome; one subject) | detected tear levels of EA, mean [2] | maximum saline solution absorbed in EA ([3]; equal volumes 0.9% saline and EA) [%] | maximum water absorbed in EA ([3]; equal volumes water and EA) [%] | ability to wear contact lenses (CDE symptoms; days 30-38, eyedrops not applied every single night) | duration of comfort before re-applying eyedrops (CDE symptoms; volunteer, one drop at night) |
| --- | --- | --- | --- | --- | --- | --- | --- | --- | --- |
| CC(=O)Oc1c(C)c(C)c2c(c1C)CCC(C)(CCC[C@H](C)CCC[C@H](C)CCCC(C)C)O2 (stereo partly drawn) [vial 8, α-tocopheryl acetate] | lost no weight |  |  |  |  |  |  |  |  |
| CC(=O)Oc1c(C)c(C)c2c(c1C)CCC(C)(CCC[C@H](C)CCC[C@H](C)CCCC(C)C)O2 (stereo partly drawn) [α-tocopheryl acetate] |  | No irritation or blurred vision | several days; also recorded: at least one day | at least seven days | 26,000 ng/ml | 0.6 | 0.3 | able to wear contact lenses (days 30-38) in relative comfort | up to five days |

Reference: patent US9474736B2, “Composition and method for treating dry eye syndrome” (RAMSCOR, INC., priority 2008, dated 2016)
